{"source": "patent US11065214B1", "about": "“Combination therapies with disulfiram” (Spring Discovery, Inc., priority 2020, dated 2021)", "key": {"[1]": {"biological_target": "transient receptor potential melastatin 8 (TRPM8) (Homo sapiens, UniProt Q7Z2W7)", "sequence (Q7Z2W7 whole entry, species assumed)": "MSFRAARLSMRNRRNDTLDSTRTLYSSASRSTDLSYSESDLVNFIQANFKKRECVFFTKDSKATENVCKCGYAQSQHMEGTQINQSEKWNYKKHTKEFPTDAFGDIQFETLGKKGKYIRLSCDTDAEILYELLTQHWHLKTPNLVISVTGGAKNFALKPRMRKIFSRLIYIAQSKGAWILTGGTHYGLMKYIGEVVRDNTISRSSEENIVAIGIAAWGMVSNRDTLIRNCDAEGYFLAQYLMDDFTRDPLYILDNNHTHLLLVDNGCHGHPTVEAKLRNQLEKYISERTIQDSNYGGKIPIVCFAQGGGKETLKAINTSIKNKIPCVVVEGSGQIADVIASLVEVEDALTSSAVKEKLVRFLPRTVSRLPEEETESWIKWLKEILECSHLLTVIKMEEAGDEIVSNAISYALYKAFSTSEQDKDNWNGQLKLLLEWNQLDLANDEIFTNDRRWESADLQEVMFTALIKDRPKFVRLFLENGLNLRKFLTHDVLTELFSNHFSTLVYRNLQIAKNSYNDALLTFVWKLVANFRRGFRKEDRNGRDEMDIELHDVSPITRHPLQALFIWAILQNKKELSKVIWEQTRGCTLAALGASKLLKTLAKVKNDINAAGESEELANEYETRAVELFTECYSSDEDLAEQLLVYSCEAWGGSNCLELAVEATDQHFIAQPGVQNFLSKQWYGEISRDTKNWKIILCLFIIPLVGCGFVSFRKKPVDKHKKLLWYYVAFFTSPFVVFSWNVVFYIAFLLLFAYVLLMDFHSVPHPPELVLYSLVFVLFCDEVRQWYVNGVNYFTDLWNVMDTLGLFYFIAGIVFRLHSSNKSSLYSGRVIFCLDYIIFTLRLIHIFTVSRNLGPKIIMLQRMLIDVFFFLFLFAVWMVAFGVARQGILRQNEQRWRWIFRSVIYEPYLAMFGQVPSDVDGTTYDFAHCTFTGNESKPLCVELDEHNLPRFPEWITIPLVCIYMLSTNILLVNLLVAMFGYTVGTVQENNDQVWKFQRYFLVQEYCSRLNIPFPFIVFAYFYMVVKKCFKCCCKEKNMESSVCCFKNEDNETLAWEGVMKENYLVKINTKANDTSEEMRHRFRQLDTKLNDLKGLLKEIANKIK", "details": "increase of [Ca2+]i; cited from earlier work"}, "Spodoptera litum larvae": {"system": "Spodoptera litum larvae", "details": "cited from earlier work"}, "[2]": {"system": "most gram-positive and some gram-negative bacteria", "details": "cited from earlier work"}, "SAMP8 mice": {"system": "SAMP8 mice", "details": "intragastric, 4-month-old SAMP8 mice, 2 months; cited from earlier work"}, "CYP2C19": {"biological_target": "CYP2C19 (Homo sapiens, UniProt P33261)", "sequence (P33261 whole entry, species assumed)": "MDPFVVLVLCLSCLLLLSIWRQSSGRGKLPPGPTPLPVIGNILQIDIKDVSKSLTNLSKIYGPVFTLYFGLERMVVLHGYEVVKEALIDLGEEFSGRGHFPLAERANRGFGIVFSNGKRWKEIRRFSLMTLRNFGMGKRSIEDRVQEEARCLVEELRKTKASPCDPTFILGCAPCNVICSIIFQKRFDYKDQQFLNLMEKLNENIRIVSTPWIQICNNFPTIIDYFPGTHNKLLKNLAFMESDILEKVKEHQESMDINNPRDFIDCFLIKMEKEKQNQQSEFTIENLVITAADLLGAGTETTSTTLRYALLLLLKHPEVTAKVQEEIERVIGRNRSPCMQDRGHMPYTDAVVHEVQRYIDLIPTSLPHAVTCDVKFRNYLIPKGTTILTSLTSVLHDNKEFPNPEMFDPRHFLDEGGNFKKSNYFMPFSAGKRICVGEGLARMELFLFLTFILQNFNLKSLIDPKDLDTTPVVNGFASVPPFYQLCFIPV", "details": "cited from earlier work"}, "CYP2C9": {"biological_target": "CYP2C9 (Homo sapiens, UniProt P11712)", "sequence (P11712 whole entry, species assumed)": "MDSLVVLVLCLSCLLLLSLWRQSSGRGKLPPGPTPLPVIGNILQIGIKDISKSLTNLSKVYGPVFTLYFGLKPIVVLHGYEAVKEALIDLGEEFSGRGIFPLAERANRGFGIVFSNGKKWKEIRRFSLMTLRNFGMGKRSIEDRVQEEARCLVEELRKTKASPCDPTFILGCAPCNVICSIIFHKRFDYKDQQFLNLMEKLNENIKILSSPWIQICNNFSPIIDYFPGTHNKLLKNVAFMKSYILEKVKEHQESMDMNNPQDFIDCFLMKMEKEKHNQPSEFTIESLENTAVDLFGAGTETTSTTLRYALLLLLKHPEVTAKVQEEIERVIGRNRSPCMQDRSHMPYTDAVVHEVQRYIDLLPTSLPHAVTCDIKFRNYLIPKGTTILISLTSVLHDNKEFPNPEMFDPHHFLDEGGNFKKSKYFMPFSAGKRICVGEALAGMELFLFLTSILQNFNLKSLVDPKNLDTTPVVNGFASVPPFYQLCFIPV", "details": "cited from earlier work"}, "CYP2C8": {"biological_target": "CYP2C8 (Homo sapiens, UniProt P10632)", "sequence (P10632 whole entry)": "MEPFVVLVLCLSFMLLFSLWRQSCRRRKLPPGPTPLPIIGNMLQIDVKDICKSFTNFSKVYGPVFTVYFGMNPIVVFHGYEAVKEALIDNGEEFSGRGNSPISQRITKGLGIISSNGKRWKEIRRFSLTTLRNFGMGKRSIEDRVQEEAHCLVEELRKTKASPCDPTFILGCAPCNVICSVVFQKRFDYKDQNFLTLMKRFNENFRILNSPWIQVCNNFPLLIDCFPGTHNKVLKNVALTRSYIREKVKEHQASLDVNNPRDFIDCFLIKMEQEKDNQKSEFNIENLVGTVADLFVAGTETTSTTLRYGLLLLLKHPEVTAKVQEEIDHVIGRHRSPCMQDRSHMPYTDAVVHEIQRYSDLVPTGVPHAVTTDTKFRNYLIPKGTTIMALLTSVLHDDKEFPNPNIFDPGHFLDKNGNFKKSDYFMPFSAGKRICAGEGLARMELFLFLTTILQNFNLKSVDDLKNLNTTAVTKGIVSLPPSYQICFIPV", "details": "cited from earlier work"}, "brain blood flow": {"system": "brain blood flow", "details": "450 mg/kg during a 15-minute period, after simvastatin 2 mg/kg subcutaneously daily for 14 days, SV-129 mice; cited from earlier work"}, "severe sepsis": {"system": "severe sepsis", "details": "patients with severe sepsis, placebo cohort 24%; cited from earlier work"}, "[3]": {"details": "510 mg/day, patients, cited from earlier work"}, "[4]": {"biological_target": "N-methyl-D-aspartate receptors (NMDARs)", "details": "glycine-binding site; read-out: KB, competitive antagonist of NMDARs; cited from earlier work"}, "SIRT1": {"biological_target": "SIRT1 (Homo sapiens, UniProt Q96EB6)", "sequence (Q96EB6 whole entry, species assumed)": "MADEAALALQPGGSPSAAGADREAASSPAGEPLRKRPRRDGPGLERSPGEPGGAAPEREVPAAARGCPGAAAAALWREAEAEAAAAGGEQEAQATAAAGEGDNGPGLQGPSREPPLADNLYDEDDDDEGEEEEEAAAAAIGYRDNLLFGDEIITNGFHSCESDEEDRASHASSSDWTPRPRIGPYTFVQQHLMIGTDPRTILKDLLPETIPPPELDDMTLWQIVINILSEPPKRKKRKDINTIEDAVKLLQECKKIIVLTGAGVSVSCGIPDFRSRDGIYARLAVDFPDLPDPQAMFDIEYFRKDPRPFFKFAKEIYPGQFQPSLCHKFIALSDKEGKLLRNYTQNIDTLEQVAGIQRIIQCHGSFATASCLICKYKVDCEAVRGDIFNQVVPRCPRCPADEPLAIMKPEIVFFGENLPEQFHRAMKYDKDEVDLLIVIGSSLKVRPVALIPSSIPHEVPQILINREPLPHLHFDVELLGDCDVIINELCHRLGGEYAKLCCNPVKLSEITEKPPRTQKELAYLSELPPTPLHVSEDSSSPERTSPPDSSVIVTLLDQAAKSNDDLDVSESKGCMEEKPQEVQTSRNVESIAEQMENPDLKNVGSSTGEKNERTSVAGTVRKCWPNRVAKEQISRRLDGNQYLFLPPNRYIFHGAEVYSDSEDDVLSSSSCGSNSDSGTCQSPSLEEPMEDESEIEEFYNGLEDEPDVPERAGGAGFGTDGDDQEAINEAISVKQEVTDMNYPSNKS", "details": "cited from earlier work"}, "[5]": {"details": "static toxicity tests; cited from earlier work"}, "[6]": {"system": "mouse skin carcinogenesis", "details": "cited from earlier work"}, "carrageenan": {"system": "carrageenan", "details": "25, 50 or 100 mg/kg, i.p., immediately and 2 h after carrageenan; cited from earlier work"}, "[7]": {"system": "fever induced by lipopolysaccharide (LPS)", "details": "50 or 100 mg/kg, i.p., 0 and 2 h; rats; cited from earlier work"}, "[8]": {"biological_target": "cyclo-oxygenase-2 (COX-2) (Homo sapiens, UniProt P35354)", "sequence (P35354 18-604, species assumed)": "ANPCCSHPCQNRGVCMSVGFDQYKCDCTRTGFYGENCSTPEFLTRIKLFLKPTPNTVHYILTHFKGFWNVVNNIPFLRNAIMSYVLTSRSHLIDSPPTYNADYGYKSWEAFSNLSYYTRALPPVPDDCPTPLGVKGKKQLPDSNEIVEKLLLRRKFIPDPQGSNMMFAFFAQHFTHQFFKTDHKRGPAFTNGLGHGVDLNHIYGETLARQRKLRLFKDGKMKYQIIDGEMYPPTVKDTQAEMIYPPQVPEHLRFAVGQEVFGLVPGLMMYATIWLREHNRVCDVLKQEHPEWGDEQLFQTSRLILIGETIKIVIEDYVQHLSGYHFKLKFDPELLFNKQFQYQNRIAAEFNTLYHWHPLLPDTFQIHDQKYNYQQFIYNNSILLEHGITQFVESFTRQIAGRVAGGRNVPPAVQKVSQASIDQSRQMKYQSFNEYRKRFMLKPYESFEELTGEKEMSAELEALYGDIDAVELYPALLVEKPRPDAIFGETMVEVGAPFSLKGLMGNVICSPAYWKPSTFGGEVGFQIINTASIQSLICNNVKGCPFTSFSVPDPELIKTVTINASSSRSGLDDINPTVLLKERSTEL", "details": "independently of NF-κB activation; cited from earlier work"}, "[9]": {"system": "fibroblasts, peripheral blood mononuclear cells (PBMCs), myoblasts", "assay": "Reversal of aging (predicted age) in cultured young/old cells contacted with disulfiram plus potentiating ingredients", "format": "cell-based", "details": "concentrations 0.000005 to 80 μM; potentiating ingredient as high as 25 μM"}, "THP1 HMGB1 Lucia cells": {"system": "THP1 HMGB1 Lucia cells", "assay": "Pyroptosis inhibition luciferase assay, LPS + nigericin, HMGB1 reporter (QUANTI-Luc)", "format": "cell-based", "details": "compound alone; 1 μg/ml LPS 3 h, then 10 μM nigericin 3 h"}, "neuroblastoma cells": {"system": "neuroblastoma cells", "details": "cited from earlier work"}, "influenza virus H1N1": {"system": "influenza virus H1N1", "details": "cited from earlier work"}, "[10]": {"system": "ProDH (proline dehydrogenase)", "details": "competitive; plants; cited from earlier work"}, "[11]": {"details": "rats, doses up to 2000 mg/kg bw; cited from earlier work"}, "[12]": {"details": "doses up to 750 mg/kg bw; cited from earlier work"}}, "data": [{"molecule": "CC1CCC(C(C)C)C(O)C1", "note": "(single isomer, unassigned; (-)) [(−)-Menthol]", "values": [{"measurement": "binding and activation of TRPM8", "setting": "[1]", "value": "(−)-Menthol is a key component of peppermint oil that binds and activates"}]}, {"molecule": "CCCC=C1OC(=O)c2ccccc21", "note": "[3-Butylidenephthalide]", "values": [{"measurement": "LC50, larvicidal activity", "setting": "Spodoptera litum larvae", "value": "activity (LC50 of 1.56 mg/g for Spodoptera litum larvae)."}]}, {"molecule": "O=C(O)c1ccc(O)cc1", "note": "[4-Hydroxybenzoic acid]", "values": [{"measurement": "IC50, inhibition of most gram-positive and some gram-negative bacteria", "setting": "[2]", "value": "IC50 of 160 μg/mL."}]}, {"molecule": "CCCCC1OC(=O)c2ccccc21", "note": "(centres unmarked) [Butylphthalide]", "values": [{"measurement": "spatial learning and memory ability", "setting": "SAMP8 mice", "value": "2 months significantly improved spatial learning and memory ability."}]}, {"molecule": "C[C@@H]1CC[C@H]2C(C)(C)[C@H]3C[C@@]12CC[C@@]3(C)O", "note": "[Cedrol]", "values": [{"measurement": "inhibitory effect on CYP2C19", "setting": "CYP2C19", "value": "weak"}, {"measurement": "inhibitory effect on CYP2C9", "setting": "CYP2C9", "value": "weak"}, {"measurement": "inhibitory effect on CYP2C8", "setting": "CYP2C8", "value": "weak"}]}, {"molecule": "N=C(N)NCCC[C@H](N)C(=O)O", "note": "[L-Arginine]", "values": [{"measurement": "hyperemia", "setting": "brain blood flow", "value": "minute period) amplifies and sustains the hyperemia (38%) and increases"}, {"measurement": "Resolution of shock at 72 hours, share of patients", "setting": "severe sepsis", "value": "72 hours is achieved by 40% and 24% of the patients in the L-Arginine"}]}, {"molecule": "C[N+](C)(C)C[C@H](O)CC(=O)[O-]", "note": "[L-Carnitine]", "values": [{"measurement": "total time for dozing off during the daytime", "setting": "[3]; versus placebo-treated periods", "value": "L-carnitine (Levocarnitine) treatment significantly improved the total"}, {"measurement": "serum acylcarnitine levels", "setting": "[3]", "value": "L-carnitine (Levocarnitine) efficiently increased serum acylcarnitine"}, {"measurement": "serum triglycerides concentration", "setting": "[3]", "value": "levels, and reduced serum triglycerides concentration."}]}, {"molecule": "N[C@@H](Cc1ccccc1)C(=O)O", "note": "[L-Phenylalanine]", "values": [{"measurement": "Kb", "setting": "[4]", "value": 573, "unit": "µM"}]}, {"molecule": "NC(=O)c1cccnc1", "note": "[Nicotinamide]", "values": [{"measurement": "inhibition of SIRT1", "setting": "SIRT1", "value": "reactions. Nicotinamide is an inhibitor of SIRT1."}]}, {"molecule": "CCCCCCCCC(=O)NCc1ccc(O)c(OC)c1", "note": "[Nonivamide]", "values": [{"measurement": "4d-EC50", "setting": "[5]", "value": "5.1 mg/L in static toxicity tests."}]}, {"molecule": "CCCCCCCC(=O)CCc1ccc(O)c(OC)c1", "note": "[Paradol]", "values": [{"measurement": "inhibition of tumor promotion", "setting": "[6]", "value": "Zingiberaceae plants. Paradol is an effective inhibitor of tumor promotion"}]}, {"molecule": "Cc1cc2nc3c(=O)[nH]c(=O)nc-3n(C[C@H](O)[C@H](O)[C@H](O)CO)c2cc1C", "note": "[Riboflavin]", "values": [{"measurement": "antiedema and antinociceptive effects", "setting": "carrageenan", "value": "induced antiedema and antinociceptive effects. The antinociceptive effect"}, {"measurement": "effect on LPS-induced fever", "setting": "[7]", "value": "inhibited the fever induced by lipopolysaccharide (LPS) in rats."}]}, {"molecule": "O=C(O)c1ccccc1O", "note": "[Salicylic acid]", "values": [{"measurement": "inhibition of COX-2 activity", "setting": "[8]", "value": "Salicylic acid (2-Hydroxybenzoic acid) inhibits cyclo-oxygenase-2"}]}, {"molecule": "CC(C)(C)c1cc(O)ccc1O", "note": "[TBHQ, tert-Butylhydroquinone]", "values": [{"measurement": "ability in combination with disulfiram to reverse aging in the cells", "setting": "[9]", "value": "identified as a potentiating ingredient"}, {"measurement": "pyroptosis inhibition (HMGB1 luciferase reporter in supernatant)", "setting": "THP1 HMGB1 Lucia cells", "value": "no effect on pyroptosis inhibition or a clear IC50"}]}, {"molecule": "COc1cc(CCC(C)=O)ccc1O", "note": "[Zingerone]", "values": [{"measurement": "growth of neuroblastoma cells", "setting": "neuroblastoma cells", "value": "agent, and inhibits the growth of neuroblastoma cells."}]}, {"molecule": "OC[C@H]1O[C@@H]2O[C@H]3[C@H](O)[C@@H](O)[C@@H](O[C@H]4[C@H](O)[C@@H](O)[C@@H](O[C@H]5[C@H](O)[C@@H](O)[C@@H](O[C@H]6[C@H](O)[C@@H](O)[C@@H](O[C@H]7[C@H](O)[C@@H](O)[C@@H](O[C@H]8[C@H](O)[C@@H](O)[C@@H](O[C@H]1[C@H](O)[C@H]2O)O[C@@H]8CO)O[C@@H]7CO)O[C@@H]6CO)O[C@@H]5CO)O[C@@H]4CO)O[C@@H]3CO", "note": "[β-Cyclodextrin]", "values": [{"measurement": "anti-influenza virus activity", "setting": "influenza virus H1N1", "value": "Cyclodextrin has anti-influenza virus H1N1 activities."}]}, {"molecule": "D-(-)-Lactic acid", "values": [{"measurement": "inhibition of ProDH", "setting": "[10]", "value": "inhibitor of ProDH (proline dehydrogenase) in plants."}]}, {"molecule": "Rebaudioside A", "values": [{"measurement": "genotoxic effects, unscheduled DNA synthesis test", "setting": "[11]", "value": "rebaudioside A do not cause any genotoxic effects at any of the doses"}, {"measurement": "genotoxic effects, mouse micronucleus test", "setting": "[12]", "value": "rebaudioside A do not cause any genotoxic effects at any of the doses"}]}]}
